Reference: patent publication US20190031717A1, “MULTI-FUNCTIONAL FUSION POLYPEPTIDE, PREPARATION METHOD THEREOF, AND APPLICATION OF SAME” (NANJING ANJI BIOLOGICAL TECHNOLOGY CO., LTD, priority 2016, published 2019)

tested on: pneumonia fungi; assay: Mouse pneumonia model, fungal; assay type: in vivo, BALB/C mice; design: concentration or dose not given beside the values; conditions: mean ± SD
Method: (§1) The mouse pneumonia model was successfully established by the nose-drop method. To build the mouse pneumonia model, BALB/C mice with a body mass of 16-22 g were selected and anesthetized pneumonia chain was prepared after anesthesia with ether on day 0, day 1, and day 2. Staphylococcal fluid, adenovirus concentrate, Mycoplasma pneumoniae, Chlamydia pneumoniae, protozoa, and pneumonia fungi were slowly dripped into the nasal cavity of the mice, so that they enter the tracheobronchial. During the operation process, care was exercised to prevent bacterial fluid from flowing into the esophagus, which leads to inactivation the bacterial fluid. After successful model establishment, the polypeptides of the present invention were administered, and the results were shown in Table 5. […] The results were expressed in average value±standard deviation.

Substance	Inhibitory Effects on Various Pulmonary Infections [%]
Arg-Gly-Asp-Gly-Gly-Gly-Gly-Ile-Val-Arg-Arg-Ala-Asp-Arg-Ala-Ala-Val-Pro-Gly-Gly-Gly-Gly-Pro-(D-Pyr)-(D-Cys)-Bip-Arg-Gly-Glu [Polypeptide IV]	59.28 ± 19.64

tested on: Pneumonia caused by lung infection; assay: Mouse pneumonia model, pneumonia caused by lung infection; assay type: in vivo, BALB/C mice; design: concentration or dose not given beside the values; conditions: mean ± SD
Method: as §1

Substance	Inhibitory Effects on Various Pulmonary Infections [%]
Arg-Gly-Asp-Gly-Gly-Gly-Gly-Ile-Val-Arg-Arg-Ala-Asp-Arg-Ala-Ala-Val-Pro-Gly-Gly-Gly-Gly-Pro-(D-Pyr)-(D-Cys)-Bip-Arg-Gly-Glu [Polypeptide IV]	52.37 ± 21.81

tested on: adenovirus concentrate; assay: Mouse pneumonia model, viral; assay type: in vivo, BALB/C mice; conditions: mean ± SD
Method: as §1

Substance	Inhibitory Effects on Various Pulmonary Infections [%]
Arg-Gly-Asp-Gly-Gly-Gly-Gly-Ile-Val-Arg-Arg-Ala-Asp-Arg-Ala-Ala-Val-Pro-Gly-Gly-Gly-Gly-Pro-(D-Pyr)-(D-Cys)-Bip-Arg-Gly-Glu [Polypeptide IV]	59.10 ± 18.42

tested on: Chlamydia pneumoniae; assay: Mouse pneumonia model, chlamydia; assay type: in vivo, BALB/C mice; design: concentration or dose not given beside the values; conditions: mean ± SD
Method: as §1

Substance	Inhibitory Effects on Various Pulmonary Infections [%]
Arg-Gly-Asp-Gly-Gly-Gly-Gly-Ile-Val-Arg-Arg-Ala-Asp-Arg-Ala-Ala-Val-Pro-Gly-Gly-Gly-Gly-Pro-(D-Pyr)-(D-Cys)-Bip-Arg-Gly-Glu [Polypeptide IV]	47.43 ± 17.72

tested on: Uterine cancer; assay: MTT assay, tumor cells; assay type: cell-based, human; design: concentration or dose not given beside the values; conditions: 48 hours, mean ± SD
Method: (§2) A variety of human tumor cells were cultured in a 37° C., 5% (volume fraction) CO2 incubator to a density of 90% or more, collected by trypsinization, resuspended in a culture medium and counted under a microscope, and the cells were harvested. The concentration was adjusted to 2.0×10^4 cells/mL, the cell suspension was inoculated into a 96-well plate at 100 μL per well and cultured overnight at 37° C. in a 5% (volume fraction) CO2 incubator. After the cells were completely adhered, the polypeptides of the present invention were added as drug-administered groups, and a culture solution containing no drug was used as a blank control group, and the culture solution was diluted to each predetermined concentration. Each dilution was separately added to a 96-well plate at 100 μL per well and incubated for 48 hours at 37° C. in a 5% (volume fraction) CO2 incubator. 20 μL of 5 mg/mL MTT was added to each well of a 96-well plate and incubation was continued for 4 h. The medium was aspirated and dissolved in 100 μL of DMSO per well. The absorbance was measured with a microplate reader at a detection wavelength of 570 nm and a reference wavelength of 630 nm, and the growth inhibition rate was calculated as follows: tumor growth inhibition rate (%)=(1−absorbance value of the administered group/unadministered group absorbance value)×100%, and the experiment was repeated 3 times independently. The results obtained from the test were expressed as mean±standard deviation, and the tumor growth inhibition rate of the unadministered group was 0. The results in Table 7 indicate that the polypeptides of the present invention have a significant inhibitory effect on the growth of various tumors (FIG. 6).

Substance	tumor growth inhibition rate, MTT Assay [%]
Arg-Gly-Asp-Gly-Gly-Gly-Gly-Ile-Val-Arg-Arg-Ala-Asp-Arg-Ala-Ala-Val-Pro-Gly-Gly-Gly-Gly-Pro-(D-Pyr)-(D-Cys)-Bip-Arg-Gly-Glu [Polypeptide IV]	78.49 ± 25.33

tested on: Pancreatic cancer; assay: MTT assay, tumor cells; assay type: cell-based, human; design: concentration or dose not given beside the values; conditions: 48 hours, mean ± SD
Method: as §2

Substance	tumor growth inhibition rate, MTT Assay [%]
Arg-Gly-Asp-Gly-Gly-Gly-Gly-Ile-Val-Arg-Arg-Ala-Asp-Arg-Ala-Ala-Val-Pro-Gly-Gly-Gly-Gly-Pro-(D-Pyr)-(D-Cys)-Bip-Arg-Gly-Glu [Polypeptide IV]	74.13 ± 24.16

tested on: Brain tumor; assay: MTT assay, tumor cells; assay type: cell-based, human; design: concentration or dose not given beside the values; conditions: 48 hours, mean ± SD
Method: as §2

Substance	tumor growth inhibition rate, MTT Assay [%]
Arg-Gly-Asp-Gly-Gly-Gly-Gly-Ile-Val-Arg-Arg-Ala-Asp-Arg-Ala-Ala-Val-Pro-Gly-Gly-Gly-Gly-Pro-(D-Pyr)-(D-Cys)-Bip-Arg-Gly-Glu [Polypeptide IV]	68.85 ± 18.42

tested on: Melanoma; assay: MTT assay, tumor cells; assay type: cell-based, human; design: concentration or dose not given beside the values; conditions: 48 hours, mean ± SD
Method: as §2

Substance	tumor growth inhibition rate, MTT Assay [%]
Arg-Gly-Asp-Gly-Gly-Gly-Gly-Ile-Val-Arg-Arg-Ala-Asp-Arg-Ala-Ala-Val-Pro-Gly-Gly-Gly-Gly-Pro-(D-Pyr)-(D-Cys)-Bip-Arg-Gly-Glu [Polypeptide IV]	57.25 ± 15.31

tested on: Prostate cancer; assay: MTT assay, tumor cells; assay type: cell-based, human; design: concentration or dose not given beside the values; conditions: 48 hours, mean ± SD
Method: as §2

Substance	tumor growth inhibition rate, MTT Assay [%]
Arg-Gly-Asp-Gly-Gly-Gly-Gly-Ile-Val-Arg-Arg-Ala-Asp-Arg-Ala-Ala-Val-Pro-Gly-Gly-Gly-Gly-Pro-(D-Pyr)-(D-Cys)-Bip-Arg-Gly-Glu [Polypeptide IV]	81.37 ± 26.10

tested on: Kidney cancer; assay: MTT assay, tumor cells; assay type: cell-based, human; design: concentration or dose not given beside the values; conditions: 48 hours, mean ± SD
Method: as §2

Substance	tumor growth inhibition rate, MTT Assay [%]
Arg-Gly-Asp-Gly-Gly-Gly-Gly-Ile-Val-Arg-Arg-Ala-Asp-Arg-Ala-Ala-Val-Pro-Gly-Gly-Gly-Gly-Pro-(D-Pyr)-(D-Cys)-Bip-Arg-Gly-Glu [Polypeptide IV]	60.35 ± 20.48

tested on: Liver cancer; assay: MTT assay, tumor cells; assay type: cell-based, human; design: concentration or dose not given beside the values; conditions: 48 hours, mean ± SD
Method: as §2

Substance	tumor growth inhibition rate, MTT Assay [%]
Arg-Gly-Asp-Gly-Gly-Gly-Gly-Ile-Val-Arg-Arg-Ala-Asp-Arg-Ala-Ala-Val-Pro-Gly-Gly-Gly-Gly-Pro-(D-Pyr)-(D-Cys)-Bip-Arg-Gly-Glu [Polypeptide IV]	73.42 ± 19.64

tested on: Bladder Cancer; assay: MTT assay, tumor cells; assay type: cell-based, human; design: concentration or dose not given beside the values; conditions: 48 hours, mean ± SD
Method: as §2

Substance	tumor growth inhibition rate, MTT Assay [%]
Arg-Gly-Asp-Gly-Gly-Gly-Gly-Ile-Val-Arg-Arg-Ala-Asp-Arg-Ala-Ala-Val-Pro-Gly-Gly-Gly-Gly-Pro-(D-Pyr)-(D-Cys)-Bip-Arg-Gly-Glu [Polypeptide IV]	52.23 ± 13.97
